Results published in patent US8318815B2, “Method for treatment of tumors using nordihydroguaiaretic acid derivatives” (priority 1999, dated 2012).
Like-named read-outs stand apart in the source and are kept apart here.

Experiments:
HSV-1 [1] = settings: cited from earlier work; for IC50: infected Vero cells
HSV-2 = settings: infected Vero cells; fourth passage of HSV-2; cited from earlier work
HSV-1 [2] = assay: HSV-1 skin infection in guinea pig, topical treatment; assay type: in vivo; settings: 30 μl of 60 mg/ml in DMSO, five times per day for six days
Procedure: The drug M4N was also tested in inhibition of HSV-1 replication in skin infections in guinea pigs. Guinea pig skin was pinched with needles and HSV-1 […] was applied topically to infect each pricked area. M4N was then applied to the pricked infected area following infection daily for 6 days.
Six areas of bared back skin of a guinea pig were punched sterilely with a 5=DIN needle. Two areas were infected with HSV-1 (HSV-C, culture supernatant, or isolated HSV in saline, HSV-SC). The other four areas were infected with HSV-SC.

SIVmac 239 = assay: SIV production in 174×CEM cells, p27 antigen capture ELISA; assay type: cell-based
Procedure: FIG. 15. SIV production with presence of G4N. 10^7 […], a human T-cell lymphoma cell line, were mixed with a 24 hrs. harvest stock of SIV mac 239 (4 ng of p27) for two hours at 37. Cells were resuspended and 1×10^5 cells in 100 μl medium were added to each well of three 96-well plates. Various concentrations of G4N from a freshly made stock were prepared and added to each of the six designed well. Culture supernatants were collected after four and eight days for viral production analysis. Viral production was assayed by a modified p27 capsid protein antigen capture ELISA as described in experimental section.
Both HIV-1 and SIV are retroviruses that require integration into the host genome to complete their replication. Both rely on host transcription factors for their proviral transcriptions. Sp1 plays a central role for such expression in these two viruses sharing an almost identical mode of transcription regulation. […] There was no SIV production detected using G4N in concentrations above […]. At G4N concentrations below 2.5 CIM, SIV production was detected (FIG. 15) in culture supernatants from 4th and 8th days post infected cultures as compared to viral production in the absence of the drug.

[3] = tested on: HIV LTR promoter (Tat-transactivation); assay: Tat-transactivation of HIV promoter activity in Cos cells, SEAP assay; assay type: cell-based; settings: read-out: IC50 for inhibition of HIV Tat-regulated transactivation
Text: As reported previously, methylated NDGA derivatives can block Sp1 binding to the enhancer sites of a variety of viral promoters including HIV, ICP4 of HSV, E6/E7 gene of HPV (8, 9, 10). We further tested the G4N effect on the Tat-transactivation of HIV promoter activity in Cos cells by the SEAP assay as previously described. […] There were 60-fold or more increase in SEAP expression when Cos cells were cotransfected with the CMV promoter driven Tat gene (8). Such Tat-driven ransactivation of the HIV LTR promoter activity was previously shown to be Sp1 regulated (7, 8). In the presence of G4N, we observed inhibition of HIV transactivation in a dose-dependent fashion (FIG. 14). […]. The differences perhaps are due to the chemical nature of the test compounds affecting the drug uptake to the cells.

HIV-1RTMF = assay: HIV-1 production in H9 cells, p24 antigen capture ELISA; assay type: cell-based; settings: p24, AZT resistant strain, read-out: IC50 for the inhibition of HIV-1 RTMF
Procedure: FIG. 16. Inhibition of HIV p24 antigen production in H9 cells by G4N. Inhibition in percentage was calculated by comparing p24 level from an average of two duplicate cultures of G4N treated and not treated H9 cells 9 days following viral infection with a AZT resistant HIV strain, HIV-1RTMF.
(§1) A similar experiment was also carried out for the study of inhibition of HIV-1 by G4N in H9 cells. The H9 cells were subcultured at 1×10^5/ml and were infected with an AZT resistant strain of HIV-1(HIV-1RTMF). G4N in different concentrations was added two hours after infection. Fresh medium change was made every four days. Cell growth in the presence of G4N was monitored carefully during the nine-day experimental period. Viral production was assayed by a p24 core antigen capture ELISA. […] Again, there was no detectable toxicity to uninfected H9 cells within the range of the assay (and below 250 μM).

[4] = Toxicity studies of G4N in mice; settings: for Mortality: 6 days
Procedure: C57BL-16NCR female mice from NCI were used in this experiment.
Injections of 0.05 ml for group 1, 0.1 ml for groups 2 and 4, and 0.2 ml for group 3 per treatment were made for a period of 6 days. Experiments lasted seven days. Body weights were determined before and after six days of injection.

[5] = target: Sp1-167D / HIV Sp1-binding sites (Homo sapiens, UniProt P08047); assay: Gel mobility-shift analysis (EMSA) of Sp1-167D binding to HIV Sp1 DNA template; settings: 0.25 to 1.75 mM
Sp1-167D / HIV Sp1-binding sites, sequence (P08047 619-785 limits assumed): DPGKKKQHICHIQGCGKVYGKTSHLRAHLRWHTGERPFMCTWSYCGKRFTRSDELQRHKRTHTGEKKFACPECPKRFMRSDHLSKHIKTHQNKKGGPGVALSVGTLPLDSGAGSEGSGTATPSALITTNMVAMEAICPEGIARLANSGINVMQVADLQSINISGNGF
Procedure: FIG. 13. Electrophoretic mobility shift assay (EMSA) of G4N interaction with the HIV Sp1-binding sites (−87 to −49). (A) G4N inhibition of Sp1-167D binding to ^32P labeled HIV Sp1 DNA template. […] Lane 1, template alone; lanes 2-4, template plus increasing amounts of Sp1-167D (0.075, 0.150, 0.300 μg); lanes 5-8, template incubated in reaction buffer containing 1.2 mM G4N followed by challenge with increasing amounts of Sp1-167D (0.075, 0.150, 0.300 μg), lane 8 received no Sp1-167D. (D) Plot of diminishing Sp1-167D/DNA complex band intensities in response to increasing concentrations of G4N used in (A) ---•--- and (B) —•—. The gels used were 5% non-denaturing polyacrylamide with each lane receiving 5 μl of each reaction volume as described in experimental section and Ref. [1].
Sp1 family proteins induce bends toward the major groove of DNA upon binding (33). The zinc finger domain of the Sp1 protein is responsible for the binding of the GC Box sequence 5′-GGGGCGGGG-3′. From computational analysis, it was determined that G4N, the aminoester derivative of NDGA, could form a stable complex with such a sequence in the major groove. To determine whether G4N can serve as an Sp1 blocker as well as an Sp1 displacer, we performed Sp1/enhancer interaction studies in the presence or absence of G4N by the gel mobility-shift analysis using only the […] binding domain of Sp1 for testing. […]

H9 cells = assay type: cell-based
Procedure: as §1

174×CEM cells = assay type: cell-based, human
Text: Both HIV-1 and SIV are retroviruses that require integration into the host genome to complete their replication. Both rely on host transcription factors for their proviral transcriptions. Sp1 plays a central role for such expression in these two viruses sharing an almost identical mode of transcription regulation. In anticipation of using SIV infected rhesus monkeys as animal model for testing the antiviral effect of G4N, we have studied and compared the G4N effect in inhibition of SIV in 174×CEM cells with that of HIV in H9 cells. Cellular toxicities of G4N in these two cell lines were also examined. For SIV inhibition study, 10^7 174×CEM cells were mixed with high titer stock of SIVmac 239 at 37° C. for two hours and then washed twice with cold PBS buffer to remove the unabsorbed virus. Cell suspension was aliquoted into each well of three 96 well plates. Various concentrations of the G4N solutions were made from freshly prepared stock and aliquoted separately and each to six wells in a column of one 96 well plate. Culture supernatants were collected every four days post infection. […] There was no SIV production detected using G4N in concentrations above […]. At G4N concentrations below 2.5 CIM, SIV production was detected (FIG. 15) in culture supernatants from 4th and 8th days post infected cultures as compared to viral production in the absence of the drug.

mammalian cells = settings: low concentrations (10 μM); cited from earlier work

In the case of `Nc1nc2c(ncn2COCCO)c(=O)[nH]1` [ACV, acycloguanosine], the “drop of selective index, S.I. (TC50/IC50)” value (HSV-1 [1]; following the viral passages in Vero cells) is given as 60 fold, the IC50 (HSV-1 [1]; first viral passage) is given as 7 µM and the IC50 (HSV-1 [1]; tenth passage of HSV-1) is given as 444 µM. The IC50 (HSV-2) was over 88 µM and the “blisters in HSV-1 infected skin areas at day 6” value (HSV-1 [2]) was “no blisters”.

For `C[C@H](Cc1ccc(OC(=O)CN(C)C)c(OC(=O)CN(C)C)c1)[C@@H](C)Cc1ccc(OC(=O)CN(C)C)c(OC(=O)CN(C)C)c1.Cl.Cl.Cl.Cl` [G4N, meso-1,4-Bis [3,4-(dimethylaminoacetoxy)phenyl]-(2R,3S)-dimethylbutane Chloride Salt], the “concentrations at which no SIV production was detected” value (SIVmac 239) was “above 5 CIM”, the “concentrations at which SIV production was detected” value (SIVmac 239; 4th and 8th days post infection) was “below 2.5 CIM” and the IC50 [3] was 36 µM. For the same molecule, the IC50 (HIV-1RTMF) was 12 µM, the Mortality ([4]; 187.5 mg/kg, Subcutaneous, 2× per day) was 0/3 and the Mortality ([4]; 375 mg/kg, IV, 2× per day) was 0/2. The Mortality ([4]; 375 mg/kg, Subcutaneous, 1× per day) was 0/3, the Mortality ([4]; 750 mg/kg, Subcutaneous, 1× per day) was 1/4 and the “body weight changes during the experimental period” value ([4]; before and after six days of injection) was “No significant weight changes”. The “blocking and displacement of Sp1-167D binding to DNA” value [5] was “able keep DNA from interacting with Sp1-167D protein”, the “concentration with no detectable toxicity to uninfected cells” value (H9 cells) was “below 250 μM” and the “concentration with no toxic effect on uninfected cells” value (174×CEM cells) was at most 250 µM.

With `COc1cc(C[C@H](C)[C@H](C)Cc2ccc(O)c(O)c2)ccc1O` [Ma1.4, 3-O-methyl NDGA, reference compound] the IC50 [3] was 25 µM.

For `CC(Cc1ccc(O)c(O)c1)C(C)Cc1ccc(O)c(O)c1` (stereo not shown) [NDGA, nordihydroguaiaretic acid], the “apoptosis in mammalian cells” value (mammalian cells) is given as “induce apoptosis”.
